{"source": "patent US5856189A", "about": "“Cell culture model for drug bioavailability” (priority 1997, dated 1999)", "key": {"[1]": {"test": "Intrinsic 1'-OH-MDZ formation clearance, human duodenal mucosa/microsomes", "format": "in vitro ADME", "conditions": "duodenal microsomes; eight human duodenal preparations, Vmax/Km; read-out: Microsomal intrinsic clearance (1'-OH-MDZ formation), duodenum", "description": "(§1) For comparison, an intrinsic 1'-OH-MDZ formation clearance was determined for eight paired human duodenal and jejunal mucosae. The mucosal mass was removed from ~1 foot sections of duodenum and jejunum and total homogenate and microsomes were prepared, as described above. […] Microsomes were incubated with varying concentrations of MDZ for determination of Km and Vmax parameters for 1'-hydroxylation.\n(§2) The total amount of microsomal protein per gram of mucosa was determined from the following relationship: [formula] This calculation assumes that CYP3A4 found in mucosal homogenate resides exclusively within the microsomal fraction. The microsomal intrinsic formation clearance was calculated as the ratio of Vmax to Km. The intrinsic 1'-OH-MDZ formation clearance per gram of mucosa was calculated as the product of the microsomal intrinsic formation clearance and the computed amount of microsomal protein per gram of mucosa."}, "[2]": {"tested_on": "human duodenal microsomes (CYP3A)", "test": "Intrinsic 1'-OH-MDZ formation clearance, human duodenal mucosa/microsomes", "format": "in vitro ADME", "conditions": "eight human duodenal preparations, Vmax/Km; listed as MDZ", "description": "as §1, §2"}, "[3]": {"test": "Intrinsic 1'-OH-MDZ formation clearance, human jejunal mucosa/microsomes", "format": "in vitro ADME", "conditions": "jejunal microsomes; eight human jejunal preparations, Vmax/Km; read-out: Microsomal intrinsic clearance (1'-OH-MDZ formation), jejunum", "description": "as §1, §2"}, "[4]": {"tested_on": "human jejunal microsomes (CYP3A)", "test": "Intrinsic 1'-OH-MDZ formation clearance, human jejunal mucosa/microsomes", "format": "in vitro ADME", "conditions": "eight human jejunal preparations, Vmax/Km; listed as MDZ", "description": "as §1, §2"}, "CYP3A (Caco-2 cells)": {"target": "CYP3A (Caco-2 cells) (Homo sapiens, UniProt P08684)", "sequence (P08684 2-503)": "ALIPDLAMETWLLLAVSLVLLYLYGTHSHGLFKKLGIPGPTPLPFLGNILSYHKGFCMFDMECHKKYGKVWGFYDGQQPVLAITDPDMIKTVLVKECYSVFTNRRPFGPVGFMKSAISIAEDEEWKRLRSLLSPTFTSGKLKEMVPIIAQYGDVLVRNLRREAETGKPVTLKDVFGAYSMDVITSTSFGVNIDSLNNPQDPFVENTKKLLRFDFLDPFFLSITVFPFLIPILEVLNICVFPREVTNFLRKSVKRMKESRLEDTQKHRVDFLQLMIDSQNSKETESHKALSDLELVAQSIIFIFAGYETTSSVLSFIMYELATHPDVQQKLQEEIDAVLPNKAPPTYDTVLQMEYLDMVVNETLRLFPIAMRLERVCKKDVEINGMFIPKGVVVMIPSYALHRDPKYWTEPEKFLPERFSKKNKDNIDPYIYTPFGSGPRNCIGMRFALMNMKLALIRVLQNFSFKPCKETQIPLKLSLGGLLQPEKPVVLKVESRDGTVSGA", "description": "Standards were also prepared in duplicate. Known amounts of MDZ and 1'-OH-MDZ (1-50 ng) were combined with 100 mM potassium phosphate buffer, pH 7.4.\nUnknowns and standards were extracted with 5 mL ethyl acetate and the upper organic layer transferred to clean tubes. The solvent was evaporated to dryness under a stream of nitrogen. The remaining solvent was reconstituted in 100 μL derivatizing reagent (10% N-methyl-N-(t-butyldimethylsilyl)trifluoroacetamide in acetonitrile).\nAt the end of this period, the medium was replaced with medium not containing vitamin D (except that contributed by the 5% FBS). Next, 4 μM MDZ was added to the apical (luminal) or basolateral (serosal) medium of the cells.\nParent drug and metabolite concentrations measured at 1 and 2 hours after MDZ administration were used for computation. The amount of 1'-OH-MDZ formed during this interval was determined as the sum of metabolite in the apical and basolateral compartments at 2 hours minus the total amount measured at 1 hour.\nBecause the incubation medium contained significant amounts of FBS, the fraction of MDZ bound to culture medium proteins was measured by equilibrium dialysis. […] The unbound concentration of MDZ in the apical and basolateral compartments during cell culture was calculated as the product of the experimentally determined MDZ-free fraction and total MDZ concentration. Since MDZ concentrations in the apical and basolateral compartments were not at equilibrium during the 1-2 hour MDZ incubation interval, the intracellular reaction was assumed to be driven by a MDZ concentration that was more closely aligned with the concentration in the basolateral compartment.\nAt the end of this period, the medium was replaced with medium containing neither serum nor vitamin D. Next, MDZ (4 μM) was added to the apical compartment."}, "[5]": {"conditions": "M. F. Paine et al.; cited from earlier work"}, "CYP3A": {"tested_on": "CYP3A", "conditions": "K. E. Thummel et al.; cited from earlier work"}, "Caco-2 cells": {"tested_on": "Caco-2 cells", "test": "Apical/basolateral distribution of midazolam and metabolite across Caco-2 monolayers", "excerpt": "At the end of this period, the medium was replaced with medium not containing vitamin D (except that contributed by the 5% FBS)."}, "[6]": {"conditions": "1α,25-(OH)2 -D3 pretreated cells"}}}
{"smiles": "Cc1ncc2n1-c1ccc(Cl)cc1C(c1ccccc1F)=NC2", "note": "[midazolam]", "values": [{"measurement": "microsomal CLint", "setting": "[1]", "result": "134 ± 109", "unit": "µL/min/mg"}, {"measurement": "Microsomal intrinsic clearance (1'-OH-MDZ formation), duodenum", "setting": "[2]", "result": 133.8, "unit": "μl/min/mg protein"}, {"measurement": "microsomal CLint", "setting": "[3]", "result": "118 ± 98.2", "unit": "µL/min/mg"}, {"measurement": "Microsomal intrinsic clearance (1'-OH-MDZ formation), jejunum", "setting": "[4]", "result": 118.3, "unit": "μl/min/mg protein"}, {"measurement": "predicted unbound intracellular MDZ concentration in Caco-2 cells", "setting": "CYP3A (Caco-2 cells)", "result": "~ 0.07 μM"}, {"measurement": "rate of 1'-OH-MDZ formation over time", "setting": "CYP3A (Caco-2 cells); 0-24 h, FIG. 6A", "result": "remained roughly constant after 6 hours"}, {"measurement": "time until 1'-OH-MDZ detectable after MDZ administration", "setting": "CYP3A (Caco-2 cells); 4 μM MDZ to either compartment, cells treated with 0.25 μM 1α,25-(OH)2 -D3", "result": "≤ 1", "unit": "h"}, {"measurement": "1'-Hydroxymidazolam formation rate", "setting": "CYP3A (Caco-2 cells); 1-2 h incubation interval, 4 μM MDZ apical", "result": 75.9, "unit": "pmol/min/g cells"}, {"measurement": "unbound midazolam concentration, apical", "setting": "CYP3A (Caco-2 cells); 1-2 h interval", "result": 280, "unit": "nM"}, {"measurement": "unbound midazolam concentration, basolateral", "setting": "CYP3A (Caco-2 cells); 1-2 h interval", "result": 66.3, "unit": "nM"}, {"measurement": "intrinsic 1'-OH-MDZ formation clearance, Caco-2 cells", "setting": "CYP3A (Caco-2 cells); 1-2 h interval, non-saturating", "result": 1.14, "unit": "ml/min/g cells"}, {"measurement": "average midazolam concentration, apical", "setting": "CYP3A (Caco-2 cells); 1-2 h interval, total", "result": 2740, "unit": "nM"}, {"measurement": "average midazolam concentration, basolateral", "setting": "CYP3A (Caco-2 cells); 1-2 h interval, total", "result": 650, "unit": "nM"}, {"measurement": "intrinsic 1'-OH-MDZ formation clearance of Caco-2 cells as percent of duodenal mucosa", "setting": "CYP3A (Caco-2 cells); [6]", "result": 30, "unit": "%"}, {"measurement": "intrinsic 1'-OH-MDZ formation clearance of Caco-2 cells as percent of jejunal mucosa", "setting": "CYP3A (Caco-2 cells); [6]", "result": 31, "unit": "%"}, {"measurement": "site of midazolam glucuronidation in vivo", "setting": "[5]", "result": "occurs primarily in the liver and not in the intestine in vivo"}, {"measurement": "Km", "setting": "CYP3A", "result": "~3.4", "unit": "µM"}, {"measurement": "apical-to-basolateral concentration gradient of parent compound", "setting": "Caco-2 cells; apical administration of 4 μM MDZ, 12-24 h", "result": "approximately 1.4 fold"}, {"measurement": "distribution of parent compound after basolateral administration", "setting": "Caco-2 cells; by 12 hours", "result": "distributed preferentially to the apical medium"}]}
